Tested on: MV-4-11 cells
Assay: Gene expression microarray analysis (Affymetrix PrimeView) and GSEA
Format: cell-based, human
Design: RFU PODN (11730768_x_at) / Fold change /veh PODN (11730768_x_at) / RFU LINC00158 (11744669_a_at) / Fold change /veh LINC00158 (11744669_a_at) / RFU DUSP10 (11751237_a_at) / Fold change /veh DUSP10 (11751237_a_at) / RFU ID3 (11757404_x_at) / Fold change /veh ID3 (11757404_x_at) / RFU PLEKHG5 (11737974_s_at) / Fold change /veh PLEKHG5 (11737974_s_at) / RFU LRRC4B (11730491_at) / Fold change /veh LRRC4B (11730491_at) / RFU GIMAP4 (11747438_a_at) / Fold change /veh GIMAP4 (11747438_a_at) / RFU KRT8 (11758183_x_at) / Fold change /veh KRT8 (11758183_x_at) / RFU CNN1 (11734310_a_at) / Fold change /veh CNN1 (11734310_a_at) / RFU VPS37D (11726825_at) / Fold change /veh VPS37D (11726825_at) / RFU C10orf10 (11716522_x_at) / Fold change /veh C10orf10 (11716522_x_at) / RFU KIR2DL2 /// KIR2DL4 /// KIR2DL5A /// KIR2DL5B /// KIR2DS1 /// KIR2DS2 /// KIR2DS3 /// KIR2DS4 /// KIR3DL3 /// KIR3DL3 /// KIR3DS1 (11738374_at) / Fold change /veh KIR2DL2 /// KIR2DL4 /// KIR2DL5A /// KIR2DL5B /// KIR2DS1 /// KIR2DS2 /// KIR2DS3 /// KIR2DS4 /// KIR3DL3 /// KIR3DL3 /// KIR3DS1 (11738374_at) / RFU C1QL1 (11718748_at) / Fold change /veh C1QL1 (11718748_at) / RFU TMPRSS4 (11747572_a_at) / Fold change /veh TMPRSS4 (11747572_a_at) / RFU HAMP (11756126_x_at) / Fold change /veh HAMP (11756126_x_at) / RFU RNFT2 (11725882_a_at) / Fold change /veh RNFT2 (11725882_a_at) / RFU NR4A2 (11747474_a_at) / Fold change /veh NR4A2 (11747474_a_at) / RFU ABCC12 (11746883_a_at) / Fold change /veh ABCC12 (11746883_a_at) / RFU TMEM136 (11760407_x_at) / Fold change /veh TMEM136 (11760407_x_at) / RFU CLDN22 /// WWC2 (11732394_at) / Fold change /veh CLDN22 /// WWC2 (11732394_at) / RFU HLA-DPB1 (11760878_x_at) / Fold change /veh HLA-DPB1 (11760878_x_at) / RFU SPINT1 (11716480_a_at) / Fold change /veh SPINT1 (11716480_a_at) / RFU GAP43 (11754022_s_at) / Fold change /veh GAP43 (11754022_s_at) / RFU A4GNT (11735810_at) / Fold change /veh A4GNT (11735810_at) / RFU PRB3 (11715151_x_at) / Fold change /veh PRB3 (11715151_x_at) / RFU TUBB4B (11761932_at) / Fold change /veh TUBB4B (11761932_at) / RFU CAPN14 (11732068_a_at) / Fold change /veh CAPN14 (11732068_a_at) / RFU TMCC2 (11721928_a_at) / Fold change /veh TMCC2 (11721928_a_at) / RFU IRGQ (11745062_a_at) / Fold change /veh IRGQ (11745062_a_at) / RFU FAM174B (11720279_a_at) / Fold change /veh FAM174B (11720279_a_at) / RFU TMPRSS4 (11748680_a_at) / Fold change /veh TMPRSS4 (11748680_a_at) / RFU FAM212B (11763350_a_at) / Fold change /veh FAM212B (11763350_a_at) / RFU PLEKHG5 (11743358_a_at) / Fold change /veh PLEKHG5 (11743358_a_at) / RFU ZSCAN30 (11745921_a_at) / Fold change /veh ZSCAN30 (11745921_a_at) / RFU CMKLR1 (11741424_a_at) / Fold change /veh CMKLR1 (11741424_a_at) / RFU LOC101060620 /// MAPK8IP1 (11723275_at) / Fold change /veh LOC101060620 /// MAPK8IP1 (11723275_at) / RFU SPTSSB (11747773_x_at) / Fold change /veh SPTSSB (11747773_x_at) / RFU PRSS12 (11739890_at) / Fold change /veh PRSS12 (11739890_at) / RFU BIN1 (11741810_x_at) / Fold change /veh BIN1 (11741810_x_at) / RFU WNT11 (11732464_a_at) / Fold change /veh WNT11 (11732464_a_at) / RFU C10orf10 (11716521_a_at) / Fold change /veh C10orf10 (11716521_a_at) / RFU C5orf56 (11738089_at) / Fold change /veh C5orf56 (11738089_at) / RFU CYB561 (11721691_x_at) / Fold change /veh CYB561 (11721691_x_at) / RFU ANKRD19P (11752326_a_at) / Fold change /veh ANKRD19P (11752326_a_at) / RFU OR2T12 /// OR2T33 /// OR2T8 (11738714_s_at) / Fold change /veh OR2T12 /// OR2T33 /// OR2T8 (11738714_s_at) / RFU VCAN (11748164_a_at) / Fold change /veh VCAN (11748164_a_at) / RFU JSRP1 (11732532_at) / Fold change /veh JSRP1 (11732532_at) / RFU KRTAP10-11 (11738290_x_at) / Fold change /veh KRTAP10-11 (11738290_x_at) / RFU MYO3A (11730013_a_at) / Fold change /veh MYO3A (11730013_a_at) / RFU EBF3 (11725865_a_at) / Fold change /veh EBF3 (11725865_a_at) / RFU CAMK2N1 (11719241_x_at) / Fold change /veh CAMK2N1 (11719241_x_at) / RFU C5orf56 (11738088_a_at) / Fold change /veh C5orf56 (11738088_a_at) / RFU OLFML3 (11715873_a_at) / Fold change /veh OLFML3 (11715873_a_at) / RFU LOC100653217 /// NTM (11731650_a_at) / Fold change /veh LOC100653217 /// NTM (11731650_a_at) / RFU MAPK11 (11762145_a_at) / Fold change /veh MAPK11 (11762145_a_at) / RFU FIZ1 (11724087_x_at) / Fold change /veh FIZ1 (11724087_x_at) / RFU OASL (11726364_x_at) / Fold change /veh OASL (11726364_x_at) / RFU SOX15 (11748057_x_at) / Fold change /veh SOX15 (11748057_x_at) / RFU CD79A (11719716_a_at) / Fold change /veh CD79A (11719716_a_at) / RFU HIST1H1D (11736915_at) / Fold change /veh HIST1H1D (11736915_at) / RFU CASKIN2 (11723855_a_at) / Fold change /veh CASKIN2 (11723855_a_at) / RFU LOC730098 (11760151_x_at) / Fold change /veh LOC730098 (11760151_x_at) / RFU OR4N2 (11742367_at) / Fold change /veh OR4N2 (11742367_at) / RFU PRRT2 (11749266_a_at) / Fold change /veh PRRT2 (11749266_a_at) / RFU SNX32 (11753110_a_at) / Fold change /veh SNX32 (11753110_a_at) / RFU CDHR5 (11726645_a_at) / Fold change /veh CDHR5 (11726645_a_at) / RFU RCAN1 (11760418_a_at) / Fold change /veh RCAN1 (11760418_a_at) / RFU FAM167A (11723789_a_at) / Fold change /veh FAM167A (11723789_a_at) / RFU FAM26E (11764081_at) / Fold change /veh FAM26E (11764081_at) / RFU ISYNA1 (11749810_s_at) / Fold change /veh ISYNA1 (11749810_s_at) / RFU ACY1 (11761880_at) / Fold change /veh ACY1 (11761880_at) / RFU 11764098_at / Fold change /veh 11764098_at / RFU SAMD14 (11745864_x_at) / Fold change /veh SAMD14 (11745864_x_at) / RFU NPB (11741838_a_at) / Fold change /veh NPB (11741838_a_at) / RFU TMPRSS6 (11731388_a_at) / Fold change /veh TMPRSS6 (11731388_a_at) / RFU KRTAP10-2 (11738614_at) / Fold change /veh KRTAP10-2 (11738614_at) / RFU ARHGAP8 /// PRR5-ARHGAP8 (11727945_x_at) / Fold change /veh ARHGAP8 /// PRR5-ARHGAP8 (11727945_x_at) / RFU KRTAP5-7 /// NADSYN1 (11734609_at) / Fold change /veh KRTAP5-7 /// NADSYN1 (11734609_at) / RFU RASL12 (11751679_a_at) / Fold change /veh RASL12 (11751679_a_at) / RFU CDKN2B (11736163_a_at) / Fold change /veh CDKN2B (11736163_a_at) / RFU PRF1 (11729649_at) / Fold change /veh PRF1 (11729649_at) / RFU, ZNF638 /// ZNF638-IT1 / Fold change vs veh, ZNF638 /// ZNF638-IT1 / RFU, PANK3 / Fold change vs veh, PANK3 / RFU, SH3YL1 / Fold change vs veh, SH3YL1 / RFU, ZEB2 / Fold change vs veh, ZEB2 / RFU, NRIP1 / Fold change vs veh, NRIP1 / RFU, PTTG1IP / Fold change vs veh, PTTG1IP / RFU, CAPN2 / Fold change vs veh, CAPN2 / RFU, MED14 / Fold change vs veh, MED14 / RFU, SNORA58 / Fold change vs veh, SNORA58 / RFU, C1orf63 / Fold change vs veh, C1orf63 / RFU, LRRFIP1 / Fold change vs veh, LRRFIP1 / RFU, NDUFAF7 / Fold change vs veh, NDUFAF7 / RFU, SLC12A2 / Fold change vs veh, SLC12A2 / RFU, IBTK / Fold change vs veh, IBTK / RFU, ESF1 / Fold change vs veh, ESF1 / Fold change vs veh, TMEM50B / RFU, TAOK1 / Fold change vs veh, TAOK1 / RFU, ACBD3 / Fold change vs veh, ACBD3 / RFU, TMA16 / Fold change vs veh, TMA16 / RFU, RWDD3 / Fold change vs veh, RWDD3 / RFU, BCAT1 / Fold change vs veh, BCAT1 / RFU, EDEM3 / Fold change vs veh, EDEM3 / RFU, TMEM33 / Fold change vs veh, TMEM33 / RFU, WDR75 / Fold change vs veh, WDR75 / RFU, AHCTF1 / Fold change vs veh, AHCTF1 / RFU, TFRC / Fold change vs veh, TFRC / RFU, ZDHHC17 / Fold change vs veh, ZDHHC17 / RFU, NOM1 / Fold change vs veh, NOM1 / RFU, ARL8B / Fold change vs veh, ARL8B / RFU, ZBTB11 / Fold change vs veh, ZBTB11 / RFU, TAMM41 / Fold change vs veh, TAMM41 / RFU, KIAA1704 /// LOC100996395 / Fold change vs veh, KIAA1704 /// LOC100996395 / RFU, ING1 / Fold change vs veh, ING1 / RFU, TRMT61B / Fold change vs veh, TRMT61B / RFU, FUBP3 / Fold change vs veh, FUBP3 / RFU, TP53 / Fold change vs veh, TP53 / RFU, TNKS2 / Fold change vs veh, TNKS2 / RFU, ZFP14 / Fold change vs veh, ZFP14 / RFU, ACTR2 / Fold change vs veh, ACTR2 / RFU, PPP3R1 / Fold change vs veh, PPP3R1 / RFU, PIK3R1 / Fold change vs veh, PIK3R1 / RFU, HNRNPA1 / Fold change vs veh, HNRNPA1 / RFU, RNF170 / Fold change vs veh, RNF170 / RFU, ZNF28 / Fold change vs veh, ZNF28 / RFU, RNGTT / Fold change vs veh, RNGTT / RFU, OGT / Fold change vs veh, OGT / RFU, BRD1 / Fold change vs veh, BRD1 / RFU, MARS / Fold change vs veh, MARS / RFU, ZNF655 / Fold change vs veh, ZNF655 / RFU, FAHD1 / Fold change vs veh, FAHD1 / RFU, BDP1 / Fold change vs veh, BDP1 / RFU, LRRCC1 / Fold change vs veh, LRRCC1 / RFU, ARID1A / Fold change vs veh, ARID1A / RFU, ZNF146 / Fold change vs veh, ZNF146 / RFU, ZNF330 / Fold change vs veh, ZNF330 / RFU, GPN3 / Fold change vs veh, GPN3 / RFU, C9orf123 / Fold change vs veh, C9orf123 / RFU, N4BP2L2 / Fold change vs veh, N4BP2L2 / RFU, ARFIP1 / Fold change vs veh, ARFIP1 / RFU, FAM179B / Fold change vs veh, FAM179B / RFU, BCL10 / Fold change vs veh, BCL10 / RFU, UHRF1BP1L / Fold change vs veh, UHRF1BP1L / RFU, BET1 / Fold change vs veh, BET1 / RFU, CNOT2 / Fold change vs veh, CNOT2 / RFU, ZNF268 / Fold change vs veh, ZNF268 / Fold change vs veh, ZNF507 / RFU, DGCR2 / Fold change vs veh, DGCR2 / RFU, WDSUB1 / Fold change vs veh, WDSUB1 / Fold change vs veh, HSP90B1 /// MIR3652 / RFU, ADSS / Fold change vs veh, ADSS / RFU, GK / Fold change vs veh, GK / RFU, ZNF148 / Fold change vs veh, ZNF148 / RFU, TAF9 / Fold change vs veh, TAF9 / RFU, SLC1A5 / Fold change vs veh, SLC1A5 / RFU, SLMO2 / Fold change vs veh, SLMO2 / RFU, ABCC4 / Fold change vs veh, ABCC4 / RFU, LOC101060439 /// RAP1B / Fold change vs veh, LOC101060439 /// RAP1B / RFU, RFX7 / Fold change vs veh, RFX7 / RFU, GTPBP10 / Fold change vs veh, GTPBP10 / RFU, CNEP1R1 / Fold change vs veh, CNEP1R1 / RFU, BIVM-ERCC5 /// ERCC5 / Fold change vs veh, BIVM-ERCC5 /// ERCC5 / RFU, ILF3 / Fold change vs veh, ILF3 / RFU 11762660_at / Fold change /veh 11762660_at / RFU VCAN (11757783_s_at) / Fold change /veh VCAN (11757783_s_at) / RFU DDX43 (11728927_at) / Fold change /veh DDX43 (11728927_at) / RFU KRT8 (11758188_x_at) / Fold change /veh KRT8 (11758188_x_at) / RFU NKD1 (11759106_at) / Fold change /veh NKD1 (11759106_at) / RFU SRD5A1 (11742802_a_at) / Fold change /veh SRD5A1 (11742802_a_at) / RFU TPSAB1 /// TPSB2 (11721975_s_at) / Fold change /veh TPSAB1 /// TPSB2 (11721975_s_at) / RFU GSTM3 (11746129_a_at) / Fold change /veh GSTM3 (11746129_a_at) / RFU IL23R (11737362_x_at) / Fold change /veh IL23R (11737362_x_at) / RFU TMEM51 (11727254_a_at) / Fold change /veh TMEM51 (11727254_a_at) / RFU PIWIL2 (11732686_x_at) / Fold change /veh PIWIL2 (11732686_x_at) / RFU ORM1 (11744905_x_at) / Fold change /veh ORM1 (11744905_x_at) / RFU CCDC152 (11743942_at) / Fold change /veh CCDC152 (11743942_at) / RFU ECM1 (11717891_a_at) / Fold change /veh ECM1 (11717891_a_at) / RFU IL23R (11748794_a_at) / Fold change /veh IL23R (11748794_a_at) / RFU TNFAIP8L3 (11732012_x_at) / Fold change /veh TNFAIP8L3 (11732012_x_at) / RFU MBOAT4 (11741988_at) / Fold change /veh MBOAT4 (11741988_at) / RFU 11764193_at / Fold change /veh 11764193_at / RFU TMEM53 (11763286_at) / Fold change /veh TMEM53 (11763286_at) / RFU MAGEB2 (11727129_at) / Fold change /veh MAGEB2 (11727129_at) / RFU TMEM200A (11744735_a_at) / Fold change /veh TMEM200A (11744735_a_at) / RFU CCDC152 (11751479_a_at) / Fold change /veh CCDC152 (11751479_a_at) / RFU FAM211A (11726209_a_at) / Fold change /veh FAM211A (11726209_a_at) / RFU RGS16 (11746705_a_at) / Fold change /veh RGS16 (11746705_a_at) / RFU VCAN (11755009_s_at) / Fold change /veh VCAN (11755009_s_at) / RFU RHOB (11743442_s_at) / Fold change /veh RHOB (11743442_s_at) / RFU RGS16 (11720943_a_at) / Fold change /veh RGS16 (11720943_a_at) / RFU RGS16 (11720944_at) / Fold change /veh RGS16 (11720944_at) / RFU, VPS4B / Fold change vs veh, VPS4B / RFU, CREB1 / Fold change vs veh, CREB1 / RFU, DNAJC13 / Fold change vs veh, DNAJC13 / RFU, GNAQ / Fold change vs veh, GNAQ / RFU, CDK5R1 / Fold change vs veh, CDK5R1 / RFU, ZRANB3 / Fold change vs veh, ZRANB3 / RFU, CUL4A / Fold change vs veh, CUL4A / RFU, CCNY / Fold change vs veh, CCNY / RFU, UFL1 / Fold change vs veh, UFL1 / RFU, COG3 / Fold change vs veh, COG3 / RFU, DIAPH2 / Fold change vs veh, DIAPH2 / RFU, SKA2 / Fold change vs veh, SKA2 / RFU, AFF3 / Fold change vs veh, AFF3 / RFU, LMF1 / Fold change vs veh, LMF1 / RFU, IPO11 / Fold change vs veh, IPO11 / RFU, DFFB / Fold change vs veh, DFFB / RFU, FOXP1 / Fold change vs veh, FOXP1 / RFU, CARD8 / Fold change vs veh, CARD8 / RFU, STRN3 / Fold change vs veh, STRN3 / RFU, ADK / Fold change vs veh, ADK / RFU, RASSF2 / Fold change vs veh, RASSF2 / RFU, WIPF1 / Fold change vs veh, WIPF1 / RFU, LARP1B / Fold change vs veh, LARP1B / RFU, RASA1 / Fold change vs veh, RASA1 / RFU, RB1 / Fold change vs veh, RB1 / RFU, PPFIA1 / Fold change vs veh, PPFIA1 / RFU, MAT2A / Fold change vs veh, MAT2A / RFU, CCT5 / Fold change vs veh, CCT5 / RFU, WDR92 / Fold change vs veh, WDR92 / RFU, CUX1 / Fold change vs veh, CUX1 / RFU, TTC7A / Fold change vs veh, TTC7A / RFU, TMEM135 / Fold change vs veh, TMEM135 / RFU, DEPTOR / Fold change vs veh, DEPTOR / RFU, CPM / Fold change vs veh, CPM / RFU, DNAJB6 / Fold change vs veh, DNAJB6 / RFU, CACNA2D3 / Fold change vs veh, CACNA2D3 / RFU, DTX4 / Fold change vs veh, DTX4 / RFU, TFCP2 / Fold change vs veh, TFCP2 / RFU, GMCL1 /// GMCL1P1 / Fold change vs veh, GMCL1 /// GMCL1P1 / RFU, AEBP2 / Fold change vs veh, AEBP2 / RFU, SNHG1 /// SNORD22 /// SNORD25 /// SNORD26 /// SNORD27 /// SNORD28 /// SNORD29 /// SNORD31 / Fold change vs veh, SNHG1 /// SNORD22 /// SNORD25 /// SNORD26 /// SNORD27 /// SNORD28 /// SNORD29 /// SNORD31 / Fold change (Aza/veh), C12orf56 (ProbeSet 11735607_a_at) / Fold change (ACY-1035/veh), C12orf56 (ProbeSet 11735607_a_at) / Fold change (Aza/veh), FGFR1OP (ProbeSet 11751329_s_at) / Fold change (ACY-1035/veh), FGFR1OP (ProbeSet 11751329_s_at) / Fold change (Aza/veh), VPS36 (ProbeSet 11739960_a_at) / Fold change (ACY-1035/veh), VPS36 (ProbeSet 11739960_a_at) / RFU SYPL1 (11715823_x_at) / Fold change /veh SYPL1 (11715823_x_at) / RFU IGFBP7 (11715501_s_at) / Fold change /veh IGFBP7 (11715501_s_at) / RFU REEP3 (11722064_at) / Fold change /veh REEP3 (11722064_at) / RFU IGLL1 (11728026_x_at) / Fold change /veh IGLL1 (11728026_x_at): dose or concentration left out as unconfirmed
Details: ProbeSet 11760938_a_at; LIST D

Question: With `Nc1ccc(-c2cccs2)cc1NC(=O)c1ccc2c(c1)cc(C1CC1)n2CCN1CCOCC1` [ACY-1035] as the compound, how does the “Fold change vs veh, MAT2A” value read?
Answer: 0.84

Source: PMC5218480 (PLoS ONE, 2017)
